Columns and labels:
Format in all cases: cell-based
[1] = system: rat embryonic cortical neurons; assay: synaptopHluorin fluorescence at whole-well level, Zeiss Axiovert Z1 inverted epifluorescence microscope
From the text: By introduction into a high percentage of neurons plated at high density within a well, synaptopHluorins were used to measure synaptic vesicle cycling at the whole-well, population level. One way synaptopHluorin was introduced into neurons was by viral infection. Viral delivery of synaptopHluorin was used to validate the ability to measure the synaptic vesicle cycle at the population level. Adeno-associated virus (MOI=1000) was used to deliver synaptopHluorin into rat embryonic cortical neurons plated in 96-well optically-clear plastic-bottomed plates (Nunc) at 11 days in vitro. At 21 days in vitro, neurons were imaged on a Zeiss Axiovert Z1 inverted epifluoresence microscope using low magnification optics (10×, 0.45 NA objective) insufficient to resolve individual synapses. Neurons in the presence or absence of external Ca^++ were treated with ionomycin, a calcium ionophore that triggers synaptic vesicle exocytosis and the resulting fluorescence of synaptopHluorin.

[2] = system: Primary rat neuronal cultures; assay: synaptopHluorin fluorescence in 96-well plates on the plate::vision plate reader; conditions: Tyrode's solution, read every 2 seconds for 1 minute
Description: The plate::vision plate reader was evaluated for its ability to record the synaptic vesicle cycle in multiple wells in parallel. Primary rat neuronal cultures in 96-well plates were infected with the synaptopHluorin adeno-associated virus at 12 days in vitro. Culture medium was replaced with Tyrode's solution plus or minus external Ca^++. A baseline recording of fluorescence was measured in the entire plate on the plate::vision plate reader. Then, ionomycin was added to all wells, and fluorescence changes were measured every 2 seconds for 1 minute. […] These changes were similar to those observed when a similar experiment was performed on the Zeiss inverted epifluorescence microscope.

[3] = system: rat embryonic cortical neurons; assay: sypHy fluorescence (synaptic vesicle exocytosis) on Fluoroskan Ascent FL plate reader; conditions: 10 uM; GFP-fluorescence recorded at 5 Hz; 33 DIV
Description: It was determined that a Fluoroskan Ascent FL plate reader is capable of measuring aspects of synaptic vesicle cycling, e.g., exocytosis, in neuronal cells expressing a synaptophysin-pHluorin reporter. Rat embryonic cortical neurons were cultured in Greiner uClear 96-well plates. At 7 DIV, cultures were infected with sypHy-AAV. At 33 DIV, culture media was replaced with assay buffer, the plate was loaded onto the Fluoroskan Ascent FL plate reader, and GFP-fluorescence was recorded at 5 Hz. This plate reader uses a photomultiplier tube (PMT) to measure the fluorescence levels in a single well at a time. A baseline fluorescence level was determined, ionomycin (10 uM) was added to induce synaptic vesicle exocytosis, and the resulting change in fluorescence was measured on by plate reader. […] (FIG. 27.)

## C[C@H](CCC(=O)O)C[C@H](C)C[C@H](C)C(=O)/C=C(\O)[C@H](C)C[C@H](C)C/C=C/[C@@H](C)[C@@H](O)[C@@H](C)[C@@H](O)C[C@@H]1CC[C@@](C)([C@H]2CC[C@@](C)([C@@H](C)O)O2)O1 [ionomycin]
[1]; in the absence of external Ca++
  increase in synaptopHluorin signal: about 3%
[1]; in the presence of external Ca++
  increase in synaptopHluorin signal: approximately 20%
[2]; absence of Ca++
  increase in fluorescence: < 5%
[2]; in the presence of Ca++
  increase in fluorescence: about 20%
[3]
  increase in fluorescence intensity: ~15%

Source: patent US20180136198A1, “SYNAPTIC VESICLE CYCLING ASSAYS AND SYSTEMS” (priority 2008, published 2018)
